Laboratory results reported in Sander's compilation of Henry's law constants (doi:10.1021/je900711h).

Experiment: Henry solubility constant Hcp at 298.15 K (mol/(m3 Pa))
Details: reference: O’Farrell and Waghorne (2010)

| SMILES | Henry solubility constant Hcp |
| --- | --- |
| CC(=O)C(Cl)Cl [1,1-dichloro-2-propanone] | 0.33 |
| COCCOC [1,2-dimethoxyethane] | 2.1 |
| C1COCOC1 [1,3-dioxane] | 1.8 |
| CC(=O)CF [1-fluoro-2-propanone] | 0.46 |
| OCC(Cl)Cl [2,2-dichloroethanol] | 0.37 |
| OCC(F)F [2,2-difluoroethanol] | 0.92 |
| CCC(=O)CC [3-pentanone] | 0.21 |
| O=C1CCCC1 [cyclopentanone] | 2.8 |
| CCO [ethanol] | 2.2 |
| CC(C)=O [propanone] | 0.33 |
